The record followed here is US7452704B2, “Dehydrogenase and a gene encoding the same” (priority 2002, dated 2008).

By remaining activity is commonly meant the activity still measured, relative to the control.

Format in all cases: biochemical, Pseudomonas putida ATCC 12633
Data set [1] concerns the target T1, N-methyl-L-phenylalanine dehydrogenase (Pseudomonas putida, UniProt Q5FB93).
T1 construct: made in house
As to the kind of experiment: Substrate specificity for keto acids with NADPH as coenzyme (Example 6). The settings on record: keto acid 10 mM, NADPH 0.2 mM, methylamine pH 10 60 mM, 37° C.; β-phenylpyruvic acid = 100%. The protocol:
(§1) Purified form of the present enzyme was obtained from cloned Escherichia coli cells in the same way as in Example 5.
Enzyme activity was measured by adding thereto various keto acids shown in Table 3 to a final concentration of 10 mM, NADPH to a final concentration of 0.2 mM, and methylamine adjusted to pH 10 with sulfuric acid to a final concentration of 60 mM, and examining the change in absorbance of the reaction mixture at 340 nm. The reaction temperature during measurement was 37° C. Defining the activity of the enzyme when β-phenylpyruvic acid was used as the substrate as 100%, the results are shown in Table 3 for relative activity.

Data set [2] addresses T1, N-methyl-L-phenylalanine dehydrogenase. As to the kind of experiment: Substrate specificity for keto acids with NADH as coenzyme (Example 11). To be noted: keto acid 40 mM (β-phenylpyruvic acid 30 mM), NADH 0.3 mM, methylamine 180 mM, pH 10.0, 37° C.; pyruvic acid = 100%. The protocol: as §1
Enzyme activity was measured by adding thereto various keto acids shown in Table 4 to a final concentration of 40 mM (except for β-phenylpyruvic acid, which was 30 mM), NADH to a final concentration of 0.3 mM, bis-Tris propane buffer (pH 10.0) to a final concentration of 100 mM, and methylamine to a final concentration of 180 mM, and examining the change in absorbance of the reaction solution at 340 nm. The reaction temperature during measurement was 37° C.

Data set [3] shares this target. Nature of the data set: Reverse reaction with NAD as coenzyme (Example 13). To be noted: N-methyl-L-alanine 50 mM, NAD 10 mM, pH 10.0, 37° C. The method, then: as §1
Enzyme activity was measured by adding thereto N-methyl-L-alanine to a final concentration of 50 mM, NAD to a final concentration of 10 mM, and bis-Tris propane buffer (pH 10.0) to a final concentration of 100 mM, and examining the change in absorbance of the reaction mixture at 340 nm. The reaction temperature during measurement was 37° C. The activity was 7.8×10^−3 (u/mg of protein).

Data set [4] has the same target. Nature of the data set: Substrate specificity for amines with NADPH as coenzyme (Example 14). The method, then:
as §1
Enzyme activity was measured by adding thereto various amines shown in Table 5 to a final concentration of 60 mM, NADPH to a final concentration of 0.2 mM, and β-phenylpyruvic acid to a final concentration of 10 mM, and examining the change in absorbance of the reaction solution at 340 nm. The reaction temperature during measurement was 37° C.

In data set [5] the target is dehydrogenase represented by the amino acid sequence of SEQ ID No. 1 (Pseudomonas putida, UniProt Q5FB93). As to the kind of experiment: Inhibition of dehydrogenase activity by divalent heavy metals. The settings on record: 0.01 mM.
In data set [6] the target is T2, N-methyl-L-phenylalanine dehydrogenase (Pseudomonas putida, UniProt Q5FB93).
T2 construct: made in house
T2 sequence (Q5FB93 whole entry, looked up): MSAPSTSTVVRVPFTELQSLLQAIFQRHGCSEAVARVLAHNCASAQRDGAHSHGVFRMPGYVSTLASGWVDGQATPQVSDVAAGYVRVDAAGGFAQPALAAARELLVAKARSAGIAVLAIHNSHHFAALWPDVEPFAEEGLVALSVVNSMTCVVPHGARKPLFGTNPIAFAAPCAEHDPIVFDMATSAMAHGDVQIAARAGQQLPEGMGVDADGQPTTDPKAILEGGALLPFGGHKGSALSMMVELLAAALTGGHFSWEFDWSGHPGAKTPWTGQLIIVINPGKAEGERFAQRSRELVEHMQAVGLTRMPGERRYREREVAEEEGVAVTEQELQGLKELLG
As to the kind of experiment: Measurement of optimal pH, NADPH (Example 7). To be noted: phenylpyruvic acid and methylamine as substrates, 37° C. The method, then: as §1
Enzyme activity was measured by adding thereto β-phenylpyruvic acid to a final concentration of 10 mM, NADPH to a final concentration of 0.2 mM, and methylamine adjusted to various pH values with sulfuric acid to a final concentration of 60 mM, and examining the change in absorbance of the reaction solution at 340 nm. The reaction temperature during measurement was 37° C. Defining the amount of enzyme that react with 1 micromole of β-phenylpyruvic acid per minute as 1 unit, the results are shown in FIG. 1 for the relationship between the number of units per protein amount (u/mg) and pH. The optimal pH of the reaction was 10.0.

Data set [7] addresses T2, N-methyl-L-phenylalanine dehydrogenase. Nature of the data set: Optimal working temperature for the enzyme (Example 8). To be noted: phenylpyruvic acid and methylamine as substrates, pH 10; listed as dehydrogenase represented by the amino acid sequence of SEQ ID No. 1. The method, then: Activity was measured using the same reaction conditions as in Example 6 and with methylamine-sulfuric acid (pH 10), except that the temperature was varied. The optimal temperature was 30 to 40° C.

The target is the same in data set [8]. Nature of the data set: Thermal stability of the enzyme (Example 10). The method, then:
The purified enzyme obtained in Example 5 was left at 25° C., 30° C., 35° C., 40° C., 45° C., and 50° C. for 30 minutes, and then measured for activity as in Example 7. The results are shown in FIG. 4 as remaining activity, with the activity of the untreated enzyme (left in ice) defined as 100.

Data set [9] has the same target. Nature of the data set: Measurement of optimal pH when NADH is the coenzyme (Example 12). To be noted: pyruvic acid 80 mM, NADH 0.3 mM, methylamine 180 mM, 37° C. The method, then:
as §1
Enzyme activity was measured by adding thereto pyruvic acid to a final concentration of 80 mM, NADH to a final concentration of 0.3 mM, and methylamine adjusted to various pH values with sulfuric acid to a final concentration of 180 mM, and examining the change in absorbance of the reaction mixture at 340 nm. The reaction temperature during measurement was 37° C. […] The optimal pH of the reaction was 9.5.

For data set [10], the target named is T3, present dehydrogenase (Pseudomonas putida, UniProt Q5FB93).
T3 construct: made in house; host or cells: Escherichia coli BL21 (DE3) carrying pENMadh and pSTV28-GDH; crude cellular extract
T3 sequence (Q5FB93 1-341): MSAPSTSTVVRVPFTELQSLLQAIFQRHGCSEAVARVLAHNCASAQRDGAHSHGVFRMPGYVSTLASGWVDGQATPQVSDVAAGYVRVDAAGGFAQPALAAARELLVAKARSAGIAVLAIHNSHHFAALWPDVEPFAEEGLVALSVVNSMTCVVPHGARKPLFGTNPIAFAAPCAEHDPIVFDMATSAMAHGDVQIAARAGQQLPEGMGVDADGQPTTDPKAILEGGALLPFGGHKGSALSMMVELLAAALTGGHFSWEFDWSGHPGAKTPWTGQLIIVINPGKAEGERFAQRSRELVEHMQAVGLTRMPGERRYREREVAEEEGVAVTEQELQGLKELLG
As to the kind of experiment: Activity of the present dehydrogenase in crude extract of co-expressing Escherichia coli (Example 18). To be noted: crude cellular extract; pH 10.0, 0.2 mM NADPH, 30 mM methylamine, 10 mM sodium pyruvate, 30° C. The method, then:
Activity of the present dehydrogenase was measured in a reaction mixture containing 100 mM bis-trispropane buffer (pH 10.0), 0.2 mM NADPH, 30 mM methylamine, and 10 mM sodium pyruvate at 30° C. 1 U was defined as the amount of the enzyme capable of oxidizing 1 μmol of NADPH per minute under the above reaction conditions.

Setting [11] is: amine 60 mM, NADPH 0.2 mM, β-phenylpyruvic acid 10 mM, 37° C., methylamine = 100%.

`CCCC(=O)C(=O)O` [2-keto-n-valeric acid]: the Relative activity amounted to 53% in data set [1] and 7.5% in data set [2].
For `CCC(=O)C(=O)O` [2-ketobutyric acid], the Relative activity in [1] worked out at 98%; in [2] it was 15%.
In the case of `CCCCC(=O)C(=O)O` [2-ketohexanoic acid], the Relative activity was determined as 174% in data set [1] and 20% in data set [2].
In the case of `CCCCCCC(=O)C(=O)O` [2-ketooctanoic acid], in [1], the Relative activity is on record as 25%.
Turning to `CN[C@@H](C)C(=O)O` [N-methyl-L-alanine], the “activity (reverse reaction)” value in data set [3] is reported as 7.8×10^−3 u/mg of protein.
For the molecule `CCCN` [N-propylamine], the Relative activity in data set [4] (setting [11]) was 1.1%.
For `N` [ammonium], in data set [4], the Relative activity was determined as 0%.
As to `[Cl][Cu][Cl]` [copper chloride (CuCl2), copper chloride], in data set [5], the “effect on dehydrogenase activity” value was “inhibited”.
For the molecule `NC1CCCCC1` [cyclohexanamine], the Relative activity in data set [4] (setting [11]) is 1.3%.
Still for that read-out and setting: the same measure for `CNC` [dimethylamine]: 1.4%; for `CCN` [ethylamine]: 1.5%.
With `CC(C)N` [isopropylamine], the Relative activity in [4] (setting [11]) was 1.5%.
As to `[Cl][Hg][Cl]` [mercury chloride (HgCl2), mercury chloride], the “effect on dehydrogenase activity” value in data set [5] is reported as “inhibited”.
In the case of `CN` [methylamine], the Relative activity in data set [4] (setting [11]) turned out to be 100%.
As for `O=C(O)C(=O)Cc1ccccc1` [phenylpyruvic acid], the Relative activity in data set [1] worked out at 100%; in data set [2], 0%.
In the same order, the values of `CC(=O)C(=O)O` [pyruvic acid] are 334% and 100%.
For the molecule `O=C(O)C(=O)CF` [β-fluoropyruvic acid], the Relative activity in data set [1] came out at 90%; in data set [2], 4.2%.

B1: present enzyme: novel dehydrogenase from Pseudomonas putida ATCC 12633, polypeptide of SEQ ID No. 1 (protein, listed as Pseudomonas putida)
chain: MSAPSTSTVVRVPFTELQSLLQAIFQRHGCSEAVARVLAHNCASAQRDGAHSHGVFRMPGYVSTLASGWVDGQATPQVSDVAAGYVRVDAAGGFAQPALAAARELLVAKARSAGIAVLAIHNSHHFAALWPDVEPFAEEGLVALSVVNSMTCVVPHGARKPLFGTNPIAFAAPCAEHDPIVFDMATSAMAHGDVQIAARAGQQLPEGMGVDADGQPTTDPKAILEGGALLPFGGHKGSALSMMVELLAAALTGGHFSWEFDWSGHPGAKTPWTGQLIIVINPGKAEGERFAQRSRELVEHMQAVGLTRMPGERRYREREVAEEEGVAVTEQELQGLKELLG
For the molecule B1, the “optimal pH” value in [6] is listed as 10.0; in data set [6] (listed as dehydrogenase of the present invention), “around 10”; in [9], 9.5. Also, in [7], the optimal temperature entry is “around 35 °C”. The molecule further gave a remaining activity in data set [8] (left 30 minutes, up to 30° C., untreated enzyme = 100) of 100%. In data set [8] (treated at optimal pH (pH 10) for 30 minutes), the “temperature of thermal stability” value is < 30 °C. Besides, the “activity of the present dehydrogenase” value in data set [10] is on record as 6.6 U/mg of protein.
